Here are results for one compound from patent US12265087B2, “Olfactory receptor as microglia marker and use thereof” (DAEGU GYEONGBUK INSTITUTE OF SCIENCE AND TECHNOLOGY, priority 2019, dated 2025).

The structures appear in SMILES notation. “Also recorded” adds a separate entry of the source.

One assay concerns the target T1, Olfr110 (Mus musculus, UniProt A2RT31).
T1 construct: Full-length odorant receptor genes from mouse and human genomic DNAs were amplified using appropriate primers; Lucy (N); Flag (N); Rho (N); expressed in transfected cells; host or cells: Hana3A cells, co-transfected with RTP1S, pCRELuc and pRL-SV40
T1 sequence (A2RT31 1-317): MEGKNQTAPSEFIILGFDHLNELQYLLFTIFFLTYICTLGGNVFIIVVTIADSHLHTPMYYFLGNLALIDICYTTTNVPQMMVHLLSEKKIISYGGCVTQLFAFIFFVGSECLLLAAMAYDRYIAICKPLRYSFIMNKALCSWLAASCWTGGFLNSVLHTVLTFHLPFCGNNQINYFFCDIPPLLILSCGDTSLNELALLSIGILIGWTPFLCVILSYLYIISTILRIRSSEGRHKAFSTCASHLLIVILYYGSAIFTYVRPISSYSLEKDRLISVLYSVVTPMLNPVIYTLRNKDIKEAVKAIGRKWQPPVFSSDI
Kind of assay: Luciferase assay in Hana3A cells transfected with Olfr110. It is filed as cell-based.

A further assay concerns Olfr111. In words: Luciferase assay in Hana3A cells transfected with Olfr111. It counts as cell-based, mouse. Conditions: Hana3A cells.
The test system of assay [1] is Hana3A cells expressing Olfr111. In words: Boyden chamber chemotaxis assay, Hana3A cells expressing Olfr111. It counts as cell-based. Conditions: 2-PF 10, 100 and 1000 μM. As to the method:
Chemotaxis was measured using a multi-well Boyden chamber. More specifically, a polycarbonate filter (8 μm pore; #101-8; Neuroprobe) was coated with […] fibronectin (Sigma-Aldrich) in PBS for 2 hours, and the coated filter was installed in a Boyden chamber. In addition, the bottom side of a plate was filled with serum-free DMEM containing 2-PF or a culture supernatant. Subsequently, microglia or Hana3A cells were transfected with an OR construct, and then suspended in serum-free DMEM. The microglia were kept at 37° C. for 4 hours, and the Hana3A cells for 8 hours. Cells that migrated to the bottom surface were fixed with 4% PFA, and stained with hematoxylin for 10 minutes. The migrated cells were counted under a light microscope in five randomly selected fixed […] fields (200×) using a scored eyepiece. A chemotaxis index was defined as the migrated cell number normalized against the untreated group.

For the next assay, the system named is primary microglia. Kind of assay: ROS / superoxide generation in primary microglia. It counts as cell-based, mouse. As for the experimental part: Superoxide concentrations were calculated by measuring the degree ofcytochrome c reduction using a VersaMax microplate reader (Babior et al., 1973). Microglia were cultured in a 96 well plate at a concentration of 1.0×10^5 cells/well, and the microglia were activated by a 10 μM ATP solution containing 2-PF and cytochrome c, or a solution in which Sup is mixed with cytochalasin B (5 μM; #C66762; Sigma Aldrich). The concentration of ROS was measured through a change in light absorption every minute for 25 minutes at 550 nm.
ROS levels were measured using 2′,7′-dichlorodihydrofluorescein diacetate (DCF-DA, #D6883; Sigma Aldrich) by a previously described method with minor modifications (Bae et al., 2001). More specifically, primary microglia were seeded in 24-well plates (5.0×10^5 cells/well) for 24 hours, and then treated with 10 μM DCF-DA at 37° C. for 30 minutes. One plate was treated with 2-PF, and the other one was not. The cells in each well were measured using a flow cytometer (FACS Accuri™ C6; BD Biosciences). MFI was measured as described above.

A short description of assay [2]: Disease behavior: mouse mobility after IP injection. Conditions: 2-PF injection (IP), three concentrations. It counts as in vivo. As for the experimental part: It is known that an increase in disease behavior by microglial activation is due to an increase in secreted cytokines. To confirm the increase in disease behavior with the increase in cytokines, this experiment was conducted. The evaluation of disease behavior was accomplished after IP injection of Sup or 2-PF into the mice.
After IP injection, a mouse was placed in a space with four open sides (40×40×40 cm, white field, black wall), and the location of the mouse was recorded with a camera for 30 minutes, and then a moving distance thereof was calculated. Afterward, the data was plotted in a pseudo-color heat map using EthoVision XT (Noldus, Netherlands).

A further assay deals with cerebral cortex. In words: Cytokine mRNA in the cerebral cortex after IP injection (qRT-PCR). It counts as in vivo, mouse. Conditions: 2-PF injection. From the text:
To measure mRNA, RNA was isolated from red blood cells, microglia, astrocytes, Hana3A cells or cerebral cortex cells using a MagNa lyser (Roche Molecular Diagnostics) with TRIzol reagent (Invitrogen, Carlsbad, Calif.) according to the manufacturer's protocols. Afterward, cDNA was synthesized through reverse transcription using isolated mRNA (using PrimeScript™ 1st str and cDNA Synthesis kit-#6110; Takara Bio Inc.). This process was quantitatively measured in real time through quantitative real-time-PCR (using a LightCycler® 480 SYBR Green I Master). The measurement values were calculated using a 2-ΔΔCt method.
For orientation: In qPCR the cycle at which signal appears reflects the starting amount.

The next assay relates to microglia. Kind of assay: Ex vivo phagocytosis of microglia in brain slices (time-lapse confocal imaging). It counts as cell-based, mouse. Conditions: brain slices of CX3CR1 GFP/+ mice. As for the experimental part:
In this experiment, to examine the phagocytotic action of microglia, the brain of a 9-week-old male CX3CR1^GFP/+ mouse was sliced to a thickness of 150 μm using a vibratome (Leica VT1200), and stored in a ice-cooled artificial cerebrospinal fluid (aCSF: 120 mM NaCl, 25 mM NaHCO3, 1.25 mM NaH2PO4, 5 mM KCl, 1 mM CaCl2, 1 mM MgSO4, […], pH7.4). Afterwards, the sliced brain was incubated to remove cell debris. Oxygen-treated aCSF was pretreated in a perfusion chamber at 37° C. for 2 hours. Subsequently, before incubation, the sliced brain was incubated with 500 μl of aCSF containing 9.10×10^7 microspheres (360/407 […]; #17458; Polysciences), and covered with a customized nylon grid. Time lapse videos were recorded every minute for 92 minutes using a confocal microscope. The number of phagocytosing microglia was counted from the images.

Method for Olfr110: A Dual-Glo luciferase assay system (#E2940; Promega) was used for OR ligand screening. More specifically, Hana3A cells were seeded in white polystyrene 96-well plates (#353296; BD Biosciences) one day before transfection. pCRELuc (1 μg; #219076; Agilent Technologies), pRL-SV40 (1 μg; #E2231; Promega), RTP1S (1 μg), and OR (6 μg; or Mock) vectors were transfected for 24 hours in each plate. Analysis was performed using Lipofectamine 2000 (#11668-019; Thermo Fisher Scientific) according to the manufacturer's protocols. Transfected cells were stimulated at 37° C. for 4 hours with various concentrations of diluted odorants in a CD293 medium (#11913-019; Thermo Fisher Scientific). The activity of luciferase was normalized to that of Renilla luciferase. Luminescence was measured using a SpectraMax L microplate reader (Molecular Devices).

Turning to `CCCCCc1ccco1` [2-PF, 2-pentylfuran], the “mode of action at Olfr110” value on Olfr110 was “agonist”. Moreover, the “reactivity with Olfr110 (relative luciferase activity)” value on Olfr110 (Hana3A cells) is “selective ligands; also recorded: showed the highest reactivity with Olfr110”. The “reactivity with Olfr111 (relative luciferase activity)” value in the assay with Olfr111 is “selective ligands; also recorded: showed reactivity”. In assay [1], the “mobility of Olfr111 cells (chemotaxis assay)” value is listed as “increased in mobility in a concentration-dependent manner”. Also, the “ROS generation on top of Sup MOI 5” value in the assay on primary microglia (500 μM 2-PF with Sup MOI 5) is on record as “further increased”. In addition, the ROS secretion entry with primary microglia (100, 300 and 500 μM) is “significantly increased in a concentration-dependent manner”. Moreover, the mouse mobility entry in assay [2] was “concentration-dependent decrease”. Also, the “expression level of inflammatory cytokines (Tnf, Il6, Il1b, Il10)” value in the assay on cerebral cortex is given as “significantly increased”. Further, the “activity of phagocytosis of microglia ex vivo” value with microglia is “increased”.
